Laboratory results from PMC13576449, “Small-Molecule Activators of PRMT1: Discovery, SAR Analyses, and Proapoptotic Effects in Pancreatic Cancer Cells” (Journal of Medicinal Chemistry, 2026).

Test system: ADMA in PANC-1 xenograft tissues
Test: Immunofluorescence staining of ADMA in xenograft tumor tissue
Format: in vivo, mouse
Conditions: after 2 weeks treatment, compared to PBS or gemcitabine alone
Method: 6 Effect of small-molecule modulators on gemcitabine-induced apoptosis and tumor growth of PDAC cells. […] After 2 h, gemcitabine (GEM) was added at increasing concentrations (10 and 25 nM) or not (−) for another incubation of 72 h. Subsequently, the luminescence-based caspase3/7 assay was performed. The activity of caspase 3/7 in treated cells was normalized to the activity measured in untreated cells (dark gray bar), which was set to 1 (mean SD, n = 6 for PANC-1 and n = 4 for PaTu8988T; *: p ≤ 0.05, **: p ≤ 0.01, ***: p ≤ 0.001, using the student t-test). […] After 24 h, gemcitabine (GEM, 1 μM) was added (+) or not (−) for another incubation of 48 h. Subsequently, the apoptotic cell fraction was quantified in % by flow cytometry using FITC-labeled Annexin V (AV) and propidium iodide (PI) staining (in B: mean ± SD, n = 6 for PANC-1 and n = 5 for PaTu8988T; **: p ≤ 0.01, ***: p ≤ 0.001, ****: p ≤ 0.0001, using the student t-test). […] Tumor volumes were measured every second day using a digital caliper. […]
For antigen retrieval, tissue sections were steam-heated for 35 min in citrate buffer (pH 6.0), cooled down to room temperature, and then washed in PBS. […] Fluorescence images were acquired using the Confocal Laser Scanning microscope Leica SP8i and analyzed with IMARIS 9.9.0 (Bitplane-Oxford Instruments, Abingdon, GB) using the Cell module.

`CN(C)Cc1cccc(CN/C=C2\C(=O)NC(=O)c3ccccc32)c1.Cl` [TR-07, (Z)-1-[3-({[(1,3-Dioxo-2,3-dihydroisoquinolin-4(1H)-lidene)methyl]amino}methyl)phenyl]-N,N-dimethylmethanaminium chloride] was tested, and the “mean intensity ADMA levels in PANC-1 xenografts (IF staining)” value was “elevated mean intensity ADMA levels”.
